Like-named read-outs stand apart in the source and are kept apart here.
Conditions: methionine enantiomers in water

Solubility at eutectic composition (274.15 K): ′ 3.83 wt %
Solubility at eutectic composition (333.15 K): ′ 9.38 wt %
SMILES: CSCC[C@H](N)C(=O)O (racemic) [methionine]

Source: US8992783B2, “Process for enantioseparation of chiral systems with compound formation using two subsequent crystallization steps” (Max-Planck-Gessellschaft zur Förderung der Wissenschaften …, priority 2008, dated 2015)
